# Measured values published in patent US7144862B2, “Orally administered peptides to ameliorate atherosclerosis” (The Regents of the University of California, priority 2000, dated 2006).
# Columns and labels:
# [1] = test system: C57BL/6J mice fed an atherogenic diet; experiment: Aortic lesion formation, daily intraperitoneal injection for 16 weeks, atherogenic diet; format: in vivo, mouse; details: 5F 20 μg or MoAI 50 μg daily i.p.
# Experimental: The livers were removed and weighed.
# Histological evaluations were performed according to the method of Paigen et al. (Paigen et al. (1990) Arteriosclerosis 10: 316–323) with some modifications. Briefly, hearts were fixed for at least one week in the phosphate-buffered formaldehyde solution. After removing the lower ⅔ of the hearts, the remaining tissue was frozen in OCT medium (Tissue-Tek, Miles Inc., Elkhart, Ind.) and sectioned in a cryostat at −20° C. Alternate 20 μm sections were saved on slides, and observed for the beginning of the aortic root. Sections were then collected for an additional 600 μm, or until the aortic cross-section was rounded and the valve cusps were no longer evident. Slides were stained with Oil Red O, and counterstained with hematoxylin. Stained lesion cross-sectional areas were measured in consecutive slides 80 μm apart by image analysis (SigmaScan Pro, SPSS Scientific, Chicago, Ill.), and the average lesion area was determined for each aortic sinus over the 400 μm length (five slides) providing the greatest mean lesion area.
# human artery wall cells = experiment: Lipoproteins from 5F-injected mice tested in human artery wall cell cocultures (lipid hydroperoxides, monocyte chemotactic activity); format: cell-based; details: 20 μg/mouse/day
# Experimental: Cocultures of human artery wall cells, monocyte isolation, isolation of lipoproteins by ultracentrifugation from the plasma of normal human donors or from mouse plasma by FPLC, and determination of lipid hydroperoxides and monocyte chemotactic activity were performed according to standard methods. All human subject participation was with informed consent approved by the UCLA Human Subjects Protection Committee. The protocol for testing mouse lipoproteins in the coculture was also performed as follows: Briefly, LDL and HDL were isolated by FPLC from mouse plasma from mice fed the atherogenic diet and injected with vehicle (PBS), or with peptide 5F at 20 μg/mouse/day. The cocultures were treated with human LDL at 200 μg/ml LDL protein, or mouse LDL at 200 μg/ml or with 200 μg/ml human LDL+human HDL at 350 μg/ml of HDL protein or mouse HDL at 300 μg/ml or with mouse HDL alone at 300 μg/ml. […] The supernatants were collected and analyzed for Auerbach lipid hydroperoxide equivalents.
# [2] = Surface pressure measurements: monolayer exclusion pressure; format: physicochemical; details: EPC monolayer; reproducibility ± 1 dyn/cm
# Experimental: An insoluble monolayer of egg phosphatidylcholine (EPC) was spread at the air-water interface in a Teflon dish at room temperature to give an initial surface pressure (πi) in the range of 5–45 dyn/cm. A solution of peptides in PBS containing 1.5M Gdn. HCl was carefully injected in to the subphase to give a final concentration of 50 μg/dL. The Gdn. HCl was diluted in the subphase to a final concentration of ≦1 mM to allow the peptides to renature. The subphase was stirred continuously and the increase in EPC monolayer surface pressure (Δπ) was recorded until a steady state value was obtained. The value of the initial surface pressure (πi) at which the peptides no longer penetrate the EYPC monolayer i.e. the exclusion pressure (πe), was calculated by extrapolating the πi vs Δπ linear regression fit to Δπ=0 dyn/cm.
# [3] = Circular dichroism, percent helicity; format: physicochemical
# Experimental: Briefly, spectra were obtained using a cell with a 0.1 cm path length and measurements were taken every nm from 260 nm to 190 nm at 25° C. All the CD spectra were signal averaged by adding four scans, base line corrected and smoothed. Peptide solutions in PBS, pH 7.4, were used at a concentration of 11 μM. Peptide-DMPC complexes (1:20 mol:mol) were used to determine the effect of lipid binding on the helicity of these peptides. These complexes were prepared by adding the appropriate volume of peptide solution to DMPC multilamellar vesicles. DMPC multilamellar vesicles were prepared as follows: A known amount of lipid was dissolved in ethanol and the solvent was removed by evaporating slowly under a thin stream of nitrogen. Residual solvent was removed by storing the lipid film under vacuum overnight. An appropriate volume of PBS, pH 7.4 was added to the thin lipid film to give the required final concentration of DMPC.
# [4] = DSC, bilayer to hexagonal phase transition of DiPoPE; format: physicochemical; details: heating scan rate 37°/h
# Experimental: A known amount of phospholipid was dissolved in chloroform. For one set of samples, peptide was dissolved in methanol and added to a solution of DiPoPE in chloroforn/methanol (2:1, v:v). For both, pure lipid samples and the organic solutions of lipid and peptide, solvent was removed under a slow stream of nitrogen. Residual solvent was removed under vacuum. […] For DMPC, four consecutive scans with a 60 minute equilibration time between scans were taken. DSC thermograms were analyzed using the software provided by MicroCal Inc., Amherst, Mass., and Origin, version 5.0.
# In the current study we prepared the peptide-lipid mixtures in two ways. One was by adding the peptide in organic solvent to the lipid in organic solvent followed by depositing the material as a film and subsequently hydrating with buffer. In the other method, the peptide and lipid were mixed after each was hydrated separately. If the mixture comes to equilibrium prior to the DSC analysis, it should not matter how the peptide and lipid are originally mixed. However, membrane systems can equilibrate slowly, in which case there may be more peptide in the lipid when it was incorporated at high concentrations into the lipid film.
# [5] = Right angle light scattering, dissolution of EPC MLVs; format: physicochemical; details: 105 μM EPC, equimolar peptide, 25° C., 30 min
# Experimental: EPC MLVs were prepared by evaporating a solution of EPC (Avanti Polar, AL) under nitrogen and hydrating the lipid film with phosphate-buffered saline (pH 7.4). […] Turbidity clarification was monitored for 30 min.
# [6] = test system: human artery wall cell cocultures; experiment: LDL-induced monocyte chemotactic activity with the homologous series of peptides (Example 3); format: cell-based; details: peptide at 100 μg/ml, LDL 250 μg protein/ml, 8 h
# Experimental: Microtitre plates were treated with 0.1% gelatin at 37° C. overnight. HASMC were added at a confluent density of 1×10^5 cells/cm^2. […] HAEC were subsequently added at 2×10^5 cells/cm^2 and were allowed to grow, forming a complete monolayer of confluent HAEC in two days. In all experiments, HAEC and autologous HASMC (from the same donor) were used at passage levels of four to six. […] The cocultures were treated with native LDL(250 μg protein/ml) or presence of HDL (350 μg protein/ml) or peptides for 8 h.
# [7] = mouse, in vivo, ip
# Experimental: (§1) Mice were acquired at six weeks of age, and randomized into groups of 20, except that a negative control group of 10 received no treatments and was given standard rodent chow. At eight weeks of age, the treatment groups were placed on a modified Thomas-Hartroft atherogenic diet (#TD88051; Teklad, Madison, Wis.), and injections were begun. […] Animals were injected intraperitoneally daily for 16 weeks, including weekends and holidays.
# (§2) At the end of the study (week 16), at the last bleeding, the heart and the liver were excised. […] The livers were removed and weighed.
# [8] = Survival, toxicity, body and liver weights after 16 weeks of injection
# Experimental: as §1, §2
# [9] = after 16 weeks, atherogenic diet, daily i.p., mean ± SEM
substance,measurement,setting,value
"Ac-DWLKAFYDKVFEKFKEFF-NH2 [Peptide 5F, Ac-D-W-L-K-A-F-Y-D-K-V-F-E-K-F-K-E-F-F-NH2]",mean lesion cross-sectional area compared with PBS-injected animals,[1],significantly lower mean lesion area
same,ability of HDL from injected mice to inhibit human LDL oxidation and LDL-induced monocyte chemotactic activity,human artery wall cells; mouse HDL 300 μg/ml with human LDL 200 μg/ml,as effective in inhibiting human LDL oxidation and preventing LDL-induced monocyte chemotactic activity in the cocultures as was normal human HDL
same,"oxidation of, and monocyte chemotactic activity induced by, LDL from injected mice versus PBS",human artery wall cells; mouse LDL 200 μg/ml,less readily oxidized and induced less monocyte chemotactic activity
same,Monolayer Exclusion Pressure(πc),[2],45 dyn/cm
same,Percent Helicity PBS,[3]; 11 μM peptide in PBS,55%
same,Percent Helicity DMPC,"[3]; 11 μM peptide, Peptide: DMPC 1:20 (mol/mol)",76%
same,shift in TH of DiPoPE with mol fraction of peptide,[4],linear increase in TH
same,clarification of EPC MLVs,[5],clarified the EPC MLVs to a similar extents
same,inhibition of LDL-induced monocyte chemotaxis,[6],significant and similar inhibition
same,toxicity,[7],No toxicity
same,Body Weight,[8]; [9],21.60 ± 0.28 g
same,Liver Weight,[8]; [9],1.61 ± 0.04 g
same,Liver: Body (percentage),[8]; [9],7.46 ± 0.23%
same,mice died from unexplained causes,"[8]; during the prolonged diet studies, groups of 20",one
